Assay results reported in publication PMC7694773, “Synthesis, 3D-QSAR, and Molecular Modeling Studies of Triazole Bearing Compounds as a Promising Scaffold for Cyclooxygenase-2 Inhibition” (Pharmaceuticals, 2020).
“And” between values parts separate entries of the source, which are not always exact repeats. Equal values may be shown once. Read-outs that look alike come from different tables or passages of the source.

What was measured:
human recombinant COX-2 = molecular target: T1, human recombinant COX-2 (Homo sapiens, UniProt P35354); test: In vitro COX-2 inhibition, enzyme immunoassay kit (Cayman item no. 560131); type: biochemical
T1 construct: purchased Cayman Chemical 560131
T1 sequence (P35354 18-604): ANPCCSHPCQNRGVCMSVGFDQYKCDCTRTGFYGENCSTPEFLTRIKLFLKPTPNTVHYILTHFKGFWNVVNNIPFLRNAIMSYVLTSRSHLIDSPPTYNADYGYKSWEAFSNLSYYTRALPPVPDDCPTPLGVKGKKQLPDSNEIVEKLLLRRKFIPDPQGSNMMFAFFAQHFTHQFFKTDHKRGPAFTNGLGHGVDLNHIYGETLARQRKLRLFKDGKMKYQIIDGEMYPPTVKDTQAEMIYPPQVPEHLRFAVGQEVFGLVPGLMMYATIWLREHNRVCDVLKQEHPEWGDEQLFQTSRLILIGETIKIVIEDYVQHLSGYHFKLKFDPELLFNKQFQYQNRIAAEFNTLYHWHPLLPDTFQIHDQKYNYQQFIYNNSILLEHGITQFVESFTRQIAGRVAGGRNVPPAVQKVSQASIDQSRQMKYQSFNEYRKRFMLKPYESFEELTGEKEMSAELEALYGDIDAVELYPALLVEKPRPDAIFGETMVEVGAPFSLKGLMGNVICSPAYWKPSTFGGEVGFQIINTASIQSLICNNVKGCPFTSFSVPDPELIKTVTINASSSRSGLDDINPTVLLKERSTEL
Source text: (§1) The in vitro COX-1/COX-2 isozyme inhibition studies measure the ability of tested compounds to inhibit bovine COX-1 and human recombinant COX-2 using an enzyme immunoassay (COX inhibitor screening assay kit, item no. 560131) according to the manufacturer’s instructions. […].

bovine COX-1 = molecular target: T2, bovine COX-1 (Ovis aries, UniProt P05979); test: In vitro COX-1 inhibition, enzyme immunoassay kit (Cayman item no. 560131); type: biochemical; details: mean of two determinations
T2 construct: purchased Cayman Chemical 560131
T2 sequence (P05979 25-600): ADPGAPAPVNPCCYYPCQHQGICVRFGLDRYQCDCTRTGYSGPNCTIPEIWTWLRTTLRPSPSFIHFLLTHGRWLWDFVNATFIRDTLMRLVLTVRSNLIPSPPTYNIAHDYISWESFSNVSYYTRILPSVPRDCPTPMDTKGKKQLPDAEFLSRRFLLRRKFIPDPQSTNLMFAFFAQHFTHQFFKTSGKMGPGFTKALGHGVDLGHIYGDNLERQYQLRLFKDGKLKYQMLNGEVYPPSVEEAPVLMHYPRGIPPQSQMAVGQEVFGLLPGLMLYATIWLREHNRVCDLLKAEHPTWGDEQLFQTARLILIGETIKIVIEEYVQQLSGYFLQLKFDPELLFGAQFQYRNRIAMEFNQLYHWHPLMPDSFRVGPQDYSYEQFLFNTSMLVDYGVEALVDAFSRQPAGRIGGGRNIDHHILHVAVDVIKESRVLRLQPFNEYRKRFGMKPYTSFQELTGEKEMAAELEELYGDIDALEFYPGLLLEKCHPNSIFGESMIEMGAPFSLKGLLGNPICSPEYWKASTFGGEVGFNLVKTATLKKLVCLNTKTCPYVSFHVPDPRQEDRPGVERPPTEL
Source text: as §1

egg albumin = molecular target: T3, egg albumin (Gallus gallus, UniProt P01012); test: In situ anti-inflammatory assay: inhibition of protein (albumin) denaturation; details: for inhibition at 1000 µM / % of inhibition ± SEM at conc. 0.1 / % of inhibition ± SEM at conc. 1 / % of inhibition ± SEM at conc. 10 / % of inhibition ± SEM at conc. 100: protein denaturation, three replicates; for inhibition at 1000 µM: conc. 1000 µM, read-out: % of inhibition ± SEM at conc. 1000; for % of inhibition ± SEM at conc. 0.1: conc. 0.1 (µM); for % of inhibition ± SEM at conc. 1: conc. 1 (µM); for % of inhibition ± SEM at conc. 10: conc. 10 (µM); for % of inhibition ± SEM at conc. 100: conc. 100 (µM)
T3 sequence (P01012 1-386): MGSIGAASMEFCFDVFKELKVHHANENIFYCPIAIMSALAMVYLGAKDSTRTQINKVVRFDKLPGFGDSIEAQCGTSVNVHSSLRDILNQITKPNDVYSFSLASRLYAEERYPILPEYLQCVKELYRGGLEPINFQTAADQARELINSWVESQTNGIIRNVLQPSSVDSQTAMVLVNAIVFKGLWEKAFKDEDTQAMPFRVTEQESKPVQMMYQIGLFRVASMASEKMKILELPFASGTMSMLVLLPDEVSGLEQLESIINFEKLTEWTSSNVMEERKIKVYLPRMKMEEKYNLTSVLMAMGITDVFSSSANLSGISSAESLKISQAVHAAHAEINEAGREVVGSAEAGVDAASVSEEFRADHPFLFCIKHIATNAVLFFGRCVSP
Method: Protein denaturation is used for the evaluation of anti-inflammatory activity. In this methodology, generally, tertiary and secondary protein structures will typically be destroyed by the application of an external molecule or stress. The biological function of most bio-proteins is lost if it is denatured. It is well reported that a basis of inflammation is denaturation of protein.
The reaction mixture is molecules with serial dilutions (1000, 100, 10, 1, 0.1 µM), phosphate buffered saline (PBS; pH 6.4), and egg albumin. The control used was double distilled water (equal volume). […] After attaining ambient temperature, the absorbance of samples was measured spectrophotometrically at 660 nm using vehicle as blank. […] The experiment was performed in triplicate. Percent inhibition of protein denaturation was calculated using the Equation Inhibition (%) of protein denaturation inhibition (%) = (AC − AS)/AC × 100 where AC: absorbance of control, AS: absorbance of sample.

[1] = human recombinant COX-2, mean of two determinations, read-out: IC50 COX-2
[2] = pIC50 = −Log (IC50) of the COX-2 IC50, read-out: Activity (experimental pIC50, COX-2) (converted)

Row | SMILES | melting point | COX-2 S.I. (selectivity index, COX-1 IC50/COX-2 IC50) (human recombinant COX-2) | IC50 (human recombinant COX-2; [1]) | IC50 (human recombinant COX-2; [2]) | IC50 (bovine COX-1) | LogIC50 protein denaturation (egg albumin; GraphPad prism curve fit, IC50 in µM (Figure 3)) | IC50 (egg albumin; non-linear regression, sigmoidal dose-inhibition fit, GraphPad prism) | inhibition at 1000 µM (egg albumin) | % of inhibition ± SEM at conc. 0.1 (egg albumin) | % of inhibition ± SEM at conc. 1 (egg albumin) | % of inhibition ± SEM at conc. 10 (egg albumin) | % of inhibition ± SEM at conc. 100 (egg albumin)
1 | Sc1nnc(COc2ccc3ccccc3c2)n1N=Cc1ccccc1 [Compound 9a, 4-(benzylideneamino)-5-((naphthalen-2-yloxy)methyl)-4H-1,2,4-triazole-3-thiol] | 184 to 186 °C | 31.5 | 220 nM | 220 nM | 6930 nM | – | – | – | – | – | – | –
2 | Oc1ccccc1C=Nn1c(S)nnc1COc1ccc2ccccc2c1 [Compound 9b, 2-(((3-mercapto-5-((naphthalen-2-yloxy)methyl)-4H-1,2,4-triazol-4-yl)imino)methyl)phenol] | 208 to 219 °C | 40.4 | 190 nM | 190 nM | 7670 nM | – | – | – | – | – | – | –
3 | O=[N+]([O-])c1cccc(C=Nn2c(S)nnc2COc2ccc3ccccc3c2)c1 [Compound 9c, 5-((naphthalen-2-yloxy)methyl)-4-((3-nitrobenzylidene)amino)-4H-1,2,4-triazole-3-thiol] | 200 to 202 °C | 72.5 | 130 nM | 130 nM | 9430 nM | – | – | – | – | – | – | –
4 | COc1ccc(C=Nn2c(S)nnc2COc2ccc3ccccc3c2)cc1 [Compound 9d, 4-((4-methoxybenzylidene)amino)-5-((naphthalen-2-yloxy)methyl)-4H-1,2,4-triazole-3-thiol] | 177 to 178 °C | 53.1 | 150 nM | 150 nM | 7970 nM | 0.9126 | 8170 nM and 8180 nM | 51% | 8.97±0.97% | 18.95±1.04% | 31.86±0.96% | 49.08±1.05%
5 | O=C(O)Cc1ccccc1Nc1c(Cl)cccc1Cl [Diclofenac sodium, reference compound] | – | – | – | – | – | – | – | 94.2% | 32.14±1.01% | 61.45±1.21% | 67.32±0.95% | 82.43±1.87%

Second part, the compound after the results:

Row | melting point | COX-2 S.I. (selectivity index, COX-1 IC50/COX-2 IC50) (human recombinant COX-2) | IC50 (human recombinant COX-2; [1]) | IC50 (human recombinant COX-2; [2]) | IC50 (bovine COX-1) | LogIC50 protein denaturation (egg albumin; GraphPad prism curve fit, IC50 in µM (Figure 3)) | IC50 (egg albumin; non-linear regression, sigmoidal dose-inhibition fit, GraphPad prism) | inhibition at 1000 µM (egg albumin) | % of inhibition ± SEM at conc. 0.1 (egg albumin) | % of inhibition ± SEM at conc. 1 (egg albumin) | % of inhibition ± SEM at conc. 10 (egg albumin) | % of inhibition ± SEM at conc. 100 (egg albumin) | SMILES
6 | – | 74.8 | 130 nM | 130 nM | 9720 nM | – | – | – | – | – | – | – | O=C(CCl)Sc1nnc(COc2ccc3ccccc3c2)n1N=Cc1ccccc1 [Compound 10a]
7 | – | 70.6 | 140 nM | 140 nM | 9890 nM | – | – | – | – | – | – | – | O=C(CCl)Sc1nnc(COc2ccc3ccccc3c2)n1N=Cc1ccccc1O [Compound 10b]
8 | – | 84.3 | 120 nM | 120 nM | 10100 nM | – | – | – | – | – | – | – | O=C(CCl)Sc1nnc(COc2ccc3ccccc3c2)n1N=Cc1cccc([N+](=O)[O-])c1 [Compound 10c]
9 | – | 94.1 | 110 nM | 110 nM | 10300 nM | – | – | – | – | – | – | – | COc1ccc(C=Nn2c(COc3ccc4ccccc4c3)nnc2SC(=O)CCl)cc1 [Compound 10d]
10 | 162 to 164 °C | 154.6 | 80 nM | 80 nM | 12400 nM | – | – | – | – | – | – | – | Nc1ncc(Sc2nnc(COc3ccc4ccccc4c3)n2N=Cc2ccccc2)o1 [Compound 11a, 5-((4-(benzylideneamino)-5-((naphthalen-2-yloxy)methyl)-4H-1,2,4-triazol-3-yl)thio)oxazol-2-amine]
11 | 80 to 81 °C | 119.2 | 90 nM | 89.9 nM | 10700 nM | – | – | – | – | – | – | – | Nc1ncc(Sc2nnc(COc3ccc4ccccc4c3)n2N=Cc2ccccc2O)o1 [Compound 11b, 2-(((3-((2-aminooxazol-5-yl)thio)-5-((naphthalen-2-yloxy)methyl)-4H-1,2,4-triazol-4-yl)imino)methyl)phenol]
12 | 196 to 198 °C | 252.6 | 50 nM | 50 nM and 49 nM | 12600 nM | – | – | – | – | – | – | – | Nc1ncc(Sc2nnc(COc3ccc4ccccc4c3)n2N=Cc2cccc([N+](=O)[O-])c2)o1 [Compound 11c, 5-((5-((naphthalen-2-yloxy)methyl)-4-((3-nitrobenzylidene)amino)-4H-1,2,4-triazol-3-yl)thio)oxazol-2-amine]
13 | 70 to 71 °C | 192.2 | 60 nM | 60.1 nM | 11500 nM | – | – | – | – | – | – | – | COc1ccc(C=Nn2c(COc3ccc4ccccc4c3)nnc2Sc2cnc(N)o2)cc1 [Compound 11d, 5-((4-((4-methoxybenzylidene)amino)-5-((naphthalen-2-yloxy)methyl)-4H-1,2,4-triazol-3-yl)thio)oxazol-2-amine]
14 | 145 to 146 °C | 98.3 | 100 nM | 100 nM | 9830 nM | – | – | – | – | – | – | – | Nc1ncc(Sc2nnc(COc3ccc4ccccc4c3)n2N=Cc2ccccc2)s1 [Compound 12a, 5-((4-(benzylideneamino)-5-((naphthalen-2-yloxy)methyl)-4H-1,2,4-triazol-3-yl)thio)thiazol-2-amine]
15 | 77 to 78 °C | 202.0 and 202.2 | 60 nM | 60.1 nM | 12100 nM | – | – | – | – | – | – | – | Nc1ncc(Sc2nnc(COc3ccc4ccccc4c3)n2N=Cc2ccccc2O)s1 [Compound 12b, 2-(((3-((2-aminothiazol-5-yl)thio)-5-((naphthalen-2-yloxy)methyl)-4H-1,2,4-triazol-4-yl)imino)methyl)phenol]
16 | 182 to 184 °C | 325.0 and 311.8 | 40 nM | 40.1 nM | 12500 nM | – | – | – | – | – | – | – | Nc1ncc(Sc2nnc(COc3ccc4ccccc4c3)n2N=Cc2cccc([N+](=O)[O-])c2)s1 [Compound 12c, 5-((5-((naphthalen-2-yloxy)methyl)-4-((3-nitrobenzylidene)amino)-4H-1,2,4-triazol-3-yl)thio)thiazol-2-amine]
